Measured values taken from patent publication US20110124614A1, “Methods And Compositions For The Treatment of Autoimmune Disorders” (priority 2008, published 2011).

Experiments:
[1] = tested on: cytokine secretion by splenocytes of PD-1KO immunized mice; assay: Cytokine secretion of mMog-35-55 stimulated splenocytes, Luminex, PD-1KO mice; format: in vivo, mouse; details: G-1 treated PD-1KO mice
Description: PD-1KO (Dr. […] One week after implantation experimental autoimmune encephalomyelitis (EAE) was induced. Splenocytes were harvested from […] cell proliferation and cytokine secretion in 48 h supernatants. (*P<0.05, or **P<0.01 compared to placebo). Lymph node and spleen cells were cultured at 4×10^6 cells/well in a 24 well flat-bottom culture plate in stimulation medium (RPMI 1640, 1% sodium pyruvate, 1% L-glutamine, 0.4% 2-β-ME, 10% FBS) with 25 μg/ml mMog-35-55 peptide for 48H. Supernatants were then harvested and stored at -80° C. until tested for cytokines. Culture supernatants were assessed for cytokine levels using a Luminex Bio-Plex mouse cytokine assay kit (BioRad, Hercules, Calif.) following the manufacturer's instructions. The following cytokines were determined in a single assay in three separate experiments: IL-1βIFN-γ, TNF-α, IL-2, IL-4, IL-5. IL-6, IL-12, IL-13, and IL-17. […] This cytokine profile was drastically altered in G-1 treated PD-1Ko mice. The decrease of Il-17 and increase of Il-6, Il-10 and IFN-γ production were abolished, whereas the reduction in IL-2 and Il-4 remained. Thus PD-1 was required for […] downregulation of IL-17 but not Il-2 and Il-4, and upregulation of IL-6, Il10 and IFN-γ.

[2] = tested on: splenocytes of PD-1KO EAE mice; assay: Ex vivo T cell proliferation to mMOG-35-55, PD-1KO mice; format: in vivo, mouse; details: G-1 treatment, FIG. 6B
Description: Splenocytes and lymph node cells were harvested ex-vivo from G-1 and E2 implanted mice and cultured in a 96-well flat bottom tissue culture plate at 4×10^5 cells/well in stimulation medium in the presence of APC, irradiated (2500 rad) syngenic thymocytes at a ration of 1:10 (T:APCs) wither with or without mMog 35-55 peptide at varying concentrations. The cells were incubated for 3 days at 37° C. in 7% CO2 and pulsed with 0.5 μCi of [^3H] thymidine (Perkin-Elmer, Boston, Mass.) for the final 18 h of incubation. The cells were harvested onto glass fiber filters, and incorporated radioactivity was measured by a liquid scintillation counter. The cpm values (mean±SD) were calculated from triplicate wells. Stimulation index (SI) was calculated by dividing the experimental cpm by the control cpm.
Splenocytes from placebo and G-1 treatment groups were evaluated for T cell proliferation and cytokine secretion in 48 h supernatants.

With `CC(=O)c1ccc2c(c1)C1C=CCC1C(c1cc3c(cc1Br)OCO3)N2` (stereo not shown) [G-1] as the compound, how does the “decrease of Il-17 production” value [1] read?
Its value is “abolished”.

And the “increase of IFN-γ production” value [1]?
Its value is “abolished”.

What about the “increase of Il-6 production” value [1] of the same compound?
The value was “abolished”.

And the “increase of Il-10 production” value [1]?
The value was “abolished”.

And the “reduction in IL-2” value [1]?
The value was “remained”.

What about the “reduction in Il-4” value [1] of the same compound?
The value was “remained”.

What about the “T cell proliferation to mMog-35-55” value [2] of the same compound?
Its value is “did not significantly change”.
